Key:
HEK cells = test: Toxicity of input signal treatment to cells; format: cell-based; conditions: 500 μM treatment
Description: (§1) Further, this system allowed for the recording of a dose response in the output signal for varying concentrations of the input signals of dAdo, dThd and dGuo (FIGS. 2A, 2B and 2C). […] None of the current genetically encoded signal recording systems^12,13 synthesize a DNA-based record in a dose response manner in mammalian cells. This salient feature of being able to synthesize a record of various NTP concentrations in the genome of cells can help in the spatial reconstruction of tightly packed together cells in tissue. Moreover, since the output signal is high (e.g. with 5 mM dThd), several lower concentrations can be distinguished, thus providing a single-cell level resolution.

HEK 293T cells = test: TdT-based nucleotide incorporation into hgRNA sites (DNA-synthesis based recording system, Cas9 + hgRNA + TdT) upon deoxyribonucleoside input signal; format: cell-based
Method: The disclosed system has been prototyped in HEK-293T cells. A hgRNA was co-expressed with terminal deoxynucleotidyl transferase (TdT), and Cas9. The TdT was directed to the double-stranded breaks created by Cas9 at the hgRNA sites and added nucleotides in HEK 293T cells (FIG. 1B).
HEK 293T cells were treated with an adenosine deaminase inhibitor, pentostatin (deoxycoformycin, dCF), that inhibits degradation of dAdo, resulting in an altered nucleotide pool. The added small molecules (dAdo, dGuo, dCF etc) were defined as the input signal. The percentage change in the TdT-based nucleotides incorporated into the hgRNA sites was defined as the output signal.
as §1

[1] = input signal 5 mM, HEK 293T cells, FIG. 2B

SMILES: Nc1ncnc2c1ncn2[C@H]1C[C@H](O)[C@@H](CO)O1 [dAdo, deoxyadenosine]
- toxicity to HEK cells (HEK cells): toxic
- dose response in the output signal with each increasing concentration of input signal (HEK 293T cells; 0 to 500 μM, except for 50 μM treatment, FIG. 2A): higher output signal
- output signal response to input signal (in words) (HEK 293T cells; HEK 293T cells): high output signal response

SMILES: OC[C@H]1O[C@@H](n2cnc3c2NC=NC[C@H]3O)C[C@@H]1O [dCF, pentostatin]
- output signal response to input signal (in words) (HEK 293T cells; HEK 293T cells): high output signal response

SMILES: Nc1nc2c(ncn2[C@H]2C[C@H](O)[C@@H](CO)O2)c(=O)[nH]1 [dGuo, deoxyguanosine]
- output signal response to input signal (in words) (HEK 293T cells; HEK 293T cells): high output signal response

SMILES: Cc1cn([C@H]2C[C@H](O)[C@@H](CO)O2)c(=O)[nH]c1=O [dThd, deoxythymidine]
- output signal (percentage change in TdT-based nucleotides incorporated into the hgRNA sites) for A (HEK 293T cells; [1]): 8%
- output signal (percentage change in TdT-based nucleotides incorporated into the hgRNA sites) for C (HEK 293T cells; [1]): 10%
- output signal (percentage change in TdT-based nucleotides incorporated into the hgRNA sites) for G (HEK 293T cells; [1]): 17.5%
- output signal (percentage change in TdT-based nucleotides incorporated into the hgRNA sites) for T (HEK 293T cells; [1]): 20%
